Test results from patent US12441733B2, “Substituted 2,4-dioxotetrahydropyrimidines as intermediates in the synthesis of bruton's tyrosine kinase inhibitors” (Novartis AG, priority 2018, dated 2025).
Read-outs that look alike come from different tables or passages of the source.

What was measured:
Type in all cases: cell-based
[1] = biological target: T1, IKZF3-GFP (Homo sapiens, UniProt Q96SW2+Q9UKT9); assay: IKZF3-GFP protein abundance flow cytometry assay in HEK293A cells; settings: Table 3, positive control compounds; % protein remaining at maximum degradation
T1 construct: expressed in transfected cells; host or cells: HEK293A (Invitrogen R70507), lentiviral transduction with pLenti6-IKZF3-GFP-Ires-RFP, blasticidin selection
Procedure: BTK-GFP and IKZF3-GFP protein abundance flow cytometry assay in HEK293A cells:
Degradation of BTK or IKZF3 was measured in HEK293A cells (Invitrogen R70507) expressing either BTK-GFP and RFP or IKZF3-GFP and RFP from a stably integrated bicistronic BTK-GFP-iresRFP or IKZF3-GFP-iresRFP construct, respectively. Reduction of the GFP signal measured by flow cytometry served as readout for BTK or IKZF3 degradation after degrader treatment.
By analogy the bicistronic pLenti6-IKZF3-GFP-iresRFP was engineered by gateway cloning of IKZF3 from a pENTR221-IKZF3(STOP-Leu) construct into the previously described pLenti6-DEST-GFP-Ires-RFP vector using the LR Clonase kit (Invitrogen 11791-019) according to the manufacturer's manual. All vectors described have been sequenced for verification.
ii) Engineering of Stably Expressing 293A BTK-GFP-Ires-RFP and IKZF3-GFP-Ires-RFP Sensor Cells
293A BTK-GFP-Ires-RFP and IKZF3-GFP-ires-RFP sensor cells were generated by lentiviral vector transduction using the pLenti6-BTK-GFP-Ires-RFP or pLenti6-IKZF3-GFP-Ires-RFP sensor construct described before. Lentiviral particles were produced in HEK293FT cells (Invitrogen R70007) by co-transfection of 500 ng pLenti6-BTK-GFP-ires-RFP or pLenti6-IKZF3-GFP-Ires-RFP, 500 ng delta8.71 and 200 ng pVSVG diluted in 100 μl OptiMEM serum free medium (Invitrogen #11058-021) that was mixed after 5 min preincubation with 3 μl of Lipofectamine2000 (Invitrogen #11668-019) in 97 μl OptiMEM serum free medium. The mix was incubated for another 20 min at RT and then added on 1 ml of a freshly prepared suspension of HEK293FT cells in a well of a 6-well plate (concentration 1.2×10^6 cells/ml). 1 day after transfection, the medium was replaced with 1.5 ml of complete growth medium (DMEM high Glucose+10% FCS+1% L-Glutamine+1% NEAA+1% NaPyr.). 48 h post transfection supernatant containing viral transducing particles was collected and frozen at −80° C.
Two days before transduction with viral particles 1×10^5 HEK293A cells (Invitrogen R70507) were seeded in 2 ml growth medium in a well of a 6-well plate. Infection was performed with 90 μl of collected supernatant containing viral transducing particles in 1 ml medium including 8 μg/ml polybrene. 24 h post infection, stably transfected cells were selected with blasticidin at a concentration of 8 μg/ml.
Iii) Quantitative BTK-GFP and IKZF3-GFP Abundance Measurements
Stable HEK293A-BTK-GFP-iresRFP cells were maintained in complete growth medium (DMEM high Glucose+10% FCS+1% L-Glutamine+1% NEAA+1% NaPyr.) with passaging performed twice per week. On Day 0, HEK293A-BTK-GFP-iresRFP or HEK293A-IKZF3-GFP-iresRFP and HEK293A-iresRFP cells were seeded at 10,000 cells/well in a 96-well microtiter plate in 260 μl complete medium. On Day 1, cells were treated in duplicate with 10-point 1:3 dilution series of compound using the HP D300 Digital Dispenser (Tecan). DMSO concentrations were normalized across the plate to 0.1%. On Day 2, after 24 h of incubation at 37° C., treatment media was discarded, cells rinsed with 100 μl/well PBS and then detached using 40 μl trypsin/well for 5 min. Trypsin was neutralized with 100 μl/well PBS+20% FCS). Flow cytometry was performed on the samples using the BD FACS CANTO II (Becton Dickinson). Cell identification was then performed using forward (FSC) vs. side scatter (SSC) plots. […] Median GFP values for 5,000 single cells are used to determine BTK levels. Median GFP values from HEK293A-iresRFP are used as a background signal and thus defining 0% BTK signal. Median GFP values from DMSO treated HEK293A-BTK-GFP-iresRFP or HEK293A-IKZF3-GFP-iresRFP are used to define 100% BTK signal for subsequent DC50 curves (concentration at 50% BTK degradation).

[2] = biological target: T2, BTK-GFP (Homo sapiens, UniProt Q06187+Q96SW2); assay: BTK-GFP protein abundance flow cytometry assay in HEK293A cells; settings: HEK293A BTK-GFP-iresRFP cells, 24 h; for DC50: GFP signal by flow cytometry, concentration at which 50% maximal degradation was observed; for BTK deg Amax: % protein remaining at the concentration at which maximum degradation is seen
T2 construct: expressed in transfected cells; host or cells: HEK293A (Invitrogen R70507), lentiviral transduction with pLenti6-BTK-GFP-Ires-RFP, blasticidin selection
Outline: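 HEK293A cells stably expressing bicistronic BTK-GFP-IRES-RFP (C-terminal GFP tag) via lentiviral vector. Degradation read by flow cytometry as loss of GFP signal after degrader treatment. DC50 is concentration giving 50% maximal degradation; Amax is % protein remaining at maximal degradation.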

[3] = system: TMD8 cells; assay: Resazurin cell viability (proliferation) assay in TMD8 DLBCL cells; settings: TMD8 cells (BTK dependent), 72 h, 50% growth inhibition vs vehicle, read-out: TMD8 Prol GI50
Outline: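 TMD8 cells were seeded at 1×10^4 per well and treated 3 h later with compound, in an 8-point 1:4 dilution series starting at 1 μM, or DMSO, for 72 h at 37° C. Resazurin was added at 13 μg/ml final for the last 2 h, and fluorescence was read at ex 530/em 600 nm. GI50 versus vehicle was derived by curve fitting from triplicates.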

[4] = system: OCI-LY3 cells; assay: Resazurin cell viability (proliferation) assay in OCI-LY3 DLBCL cells; settings: OCI-LY3 cells (BTK independent), 72 h, 50% growth inhibition vs vehicle, read-out: OCI-LY3 Prol GI50
Outline: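 Cells were seeded at 1×10^4 per well and dosed 3 h later: 8-point 1:4 dilutions from 10 μM (OCI-LY3), in triplicate, 72 h at 37 °C. Resazurin (13 μg/ml final) was added for the last 2 h and fluorescence read at 530/600 nm. GI50 is relative to DMSO vehicle, typically from ≥2 independent experiments.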

T2 sequence (Q06187 whole entry): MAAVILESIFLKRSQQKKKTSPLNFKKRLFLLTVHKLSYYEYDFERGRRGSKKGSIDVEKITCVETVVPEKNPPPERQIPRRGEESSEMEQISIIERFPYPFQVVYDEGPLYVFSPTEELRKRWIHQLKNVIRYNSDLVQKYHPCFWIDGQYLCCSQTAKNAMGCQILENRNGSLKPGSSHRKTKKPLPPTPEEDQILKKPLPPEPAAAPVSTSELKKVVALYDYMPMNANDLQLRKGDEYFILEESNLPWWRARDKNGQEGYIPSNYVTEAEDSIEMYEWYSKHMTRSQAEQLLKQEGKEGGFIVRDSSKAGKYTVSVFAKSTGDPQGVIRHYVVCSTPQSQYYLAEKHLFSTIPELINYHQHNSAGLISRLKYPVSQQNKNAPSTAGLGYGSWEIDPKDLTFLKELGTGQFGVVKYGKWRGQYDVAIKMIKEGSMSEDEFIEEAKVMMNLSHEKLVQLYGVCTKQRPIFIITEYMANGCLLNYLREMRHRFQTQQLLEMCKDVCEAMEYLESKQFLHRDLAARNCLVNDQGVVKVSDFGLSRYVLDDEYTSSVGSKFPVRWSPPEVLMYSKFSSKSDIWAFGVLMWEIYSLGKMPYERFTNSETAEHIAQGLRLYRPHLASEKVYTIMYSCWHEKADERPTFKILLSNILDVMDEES
T2 sequence (Q96SW2 whole entry): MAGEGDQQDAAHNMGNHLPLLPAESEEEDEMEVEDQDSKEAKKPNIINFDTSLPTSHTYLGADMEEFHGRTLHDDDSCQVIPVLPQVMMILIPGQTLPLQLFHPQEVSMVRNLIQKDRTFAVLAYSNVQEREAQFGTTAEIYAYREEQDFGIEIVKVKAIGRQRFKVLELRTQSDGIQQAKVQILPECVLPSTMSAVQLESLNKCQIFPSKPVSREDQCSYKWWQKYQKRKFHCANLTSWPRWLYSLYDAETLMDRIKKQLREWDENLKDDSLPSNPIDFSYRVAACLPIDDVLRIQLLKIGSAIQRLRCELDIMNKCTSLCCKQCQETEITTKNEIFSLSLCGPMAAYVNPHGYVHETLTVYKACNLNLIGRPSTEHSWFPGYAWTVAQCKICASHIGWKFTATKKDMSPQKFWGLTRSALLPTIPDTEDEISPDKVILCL
T2 sequence (Q16531 whole entry partner): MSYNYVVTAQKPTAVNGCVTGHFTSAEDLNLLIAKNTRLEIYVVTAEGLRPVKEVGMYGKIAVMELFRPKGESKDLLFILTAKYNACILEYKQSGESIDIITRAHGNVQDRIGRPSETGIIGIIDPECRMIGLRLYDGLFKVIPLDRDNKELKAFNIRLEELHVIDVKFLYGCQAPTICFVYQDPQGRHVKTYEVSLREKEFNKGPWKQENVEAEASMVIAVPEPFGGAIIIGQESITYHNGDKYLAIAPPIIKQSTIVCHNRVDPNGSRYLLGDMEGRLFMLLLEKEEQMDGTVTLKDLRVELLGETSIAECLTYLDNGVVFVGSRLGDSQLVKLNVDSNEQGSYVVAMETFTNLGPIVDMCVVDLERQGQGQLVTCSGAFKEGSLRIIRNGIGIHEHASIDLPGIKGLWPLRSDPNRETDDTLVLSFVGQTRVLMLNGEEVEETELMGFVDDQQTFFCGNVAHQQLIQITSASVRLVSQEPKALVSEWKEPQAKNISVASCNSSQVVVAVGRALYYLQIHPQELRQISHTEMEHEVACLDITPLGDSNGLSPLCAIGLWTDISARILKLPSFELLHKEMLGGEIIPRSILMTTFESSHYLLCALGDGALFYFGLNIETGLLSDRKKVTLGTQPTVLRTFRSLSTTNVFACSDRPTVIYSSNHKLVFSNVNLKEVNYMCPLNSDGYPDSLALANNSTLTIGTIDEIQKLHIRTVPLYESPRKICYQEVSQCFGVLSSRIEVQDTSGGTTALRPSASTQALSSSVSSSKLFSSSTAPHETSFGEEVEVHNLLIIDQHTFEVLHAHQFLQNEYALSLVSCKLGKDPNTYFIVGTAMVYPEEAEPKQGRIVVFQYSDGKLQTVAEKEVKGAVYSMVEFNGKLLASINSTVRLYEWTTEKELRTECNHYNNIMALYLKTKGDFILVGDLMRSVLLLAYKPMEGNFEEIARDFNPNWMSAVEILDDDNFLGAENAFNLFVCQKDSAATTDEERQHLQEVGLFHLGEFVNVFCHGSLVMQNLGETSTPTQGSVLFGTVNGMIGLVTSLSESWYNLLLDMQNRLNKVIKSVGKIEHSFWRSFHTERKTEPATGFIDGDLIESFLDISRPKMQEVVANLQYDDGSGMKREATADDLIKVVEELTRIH
T1 sequence (Q9UKT9 whole entry): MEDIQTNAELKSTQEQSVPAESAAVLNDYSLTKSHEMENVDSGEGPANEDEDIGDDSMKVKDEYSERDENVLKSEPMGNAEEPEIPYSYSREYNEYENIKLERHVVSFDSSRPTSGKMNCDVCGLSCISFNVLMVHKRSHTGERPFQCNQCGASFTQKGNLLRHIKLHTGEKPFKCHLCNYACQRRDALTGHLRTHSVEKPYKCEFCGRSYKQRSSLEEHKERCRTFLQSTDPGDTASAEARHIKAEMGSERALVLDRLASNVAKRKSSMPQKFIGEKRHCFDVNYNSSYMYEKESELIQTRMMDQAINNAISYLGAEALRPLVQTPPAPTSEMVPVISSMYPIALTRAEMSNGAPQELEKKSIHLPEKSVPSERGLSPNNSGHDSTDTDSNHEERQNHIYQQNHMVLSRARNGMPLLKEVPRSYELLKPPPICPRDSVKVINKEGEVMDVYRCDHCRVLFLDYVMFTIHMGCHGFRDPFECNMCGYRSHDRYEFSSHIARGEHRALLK
T1 sequence (Q96SW2 whole entry): as the sequence (Q96SW2 whole entry) above
T1 sequence (Q16531 whole entry partner): as the sequence (Q16531 whole entry partner) above

IKZF deg Amax [1] [%]	DC50 [2] [nM]	BTK deg Amax [2] [%]	GI50 ([4]; Homo sapiens) [nM]	SMILES	GI50 ([3]; Homo sapiens) [nM]	GI50 [3] [nM]	GI50 [4] [nM]
13.2				Nc1cccc2c1C(=O)N(C1CCC(=O)NC1=O)C2=O (stereo not shown) [Pomalidomide, reference compound]			
	19.1	3.6	> 10000	COc1ccc(C(=O)N2CCC3(CCN(Cc4ccc(-c5cc6c(-c7cc(F)cc(NC(=O)c8ccc(C(C)(C)O)cc8F)c7C)ncnc6[nH]5)cc4)CC3)[C@H](CO)C2)cc1N1CCC(=O)NC1=O (single isomer, unassigned) [Compound 3]	2.24		
	20.8	9.4	3600	Cc1c(NC(=O)c2ccc(C(C)(C)O)cc2F)cc(F)cc1-c1ncnc2[nH]c(-c3ccc(CN4CCC5(CC4)CN(CCCNC(=O)c4ccc(Cl)c(N6CCC(=O)NC6=O)c4)CCO5)cc3)cc12 [Compound 48, N-(3-(6-(4-((4-(3-(4-chloro-3-(2,4-dioxotetrahydropyrimidin-1(2H)-yl)benzamido)propyl)-1-oxa-4,9-diazaspiro[5.5]undecan-9-yl)methyl)phenyl)-7H-pyrrolo[2,3-d]pyrimidin-4-yl)-5-fluoro-2-methylphenyl)-2-fluoro-4-(2-hydroxypropan-2-yl)benzamide]	2.23		
	34.2	15.4	7440	COc1ccc(C(=O)N2CC3(CCN(Cc4ccc(-c5cc6c(-c7cc(F)cc(NC(=O)c8ccc(C(C)(C)O)cc8F)c7C)ncnc6[nH]5)cc4)CC3)C2)cc1N1CCC(=O)NC1=O [Compound 32]	6.31		
	1.8	3.7	6830	COc1ccc(C(=O)N2CCN(CCN3CCC(OCc4ccc(-c5cc6c(-c7cc(F)cc(NC(=O)c8ccc(C(C)(C)O)cc8F)c7C)ncnc6[nH]5)cc4)CC3)CC2)cc1N1CCC(=O)NC1=O [Compound 21, N-(3-(6-(4-(((1-(2-(4-(3-(2,4-dioxotetrahydropyrimidin-1(2H)-yl)-4-methoxybenzoyl)piperazin-1-yl)ethyl)piperidin-4-yl)oxyl)methyl)phenyl)-7H-pyrrolo[2,3-d]pyrimidin-4-yl)-5-fluoro-2-methylphenyl)-2-fluoro-4-(2-hydroxypropan-2-yl)benzamide]	0.6		

SMILES	IKZF deg Amax [1] [%]	DC50 [2] [nM]	BTK deg Amax [2] [%]	GI50 ([4]; Homo sapiens) [nM]	GI50 ([3]; Homo sapiens) [nM]	GI50 [3] [nM]	GI50 [4] [nM]
COc1ccc(C(=O)N2CCC(O[C@H]3CC[C@@H](Oc4ccc(-c5cc6c(-c7cc(F)cc(NC(=O)c8ccc(C(C)(C)O)cc8F)c7C)ncnc6[nH]5)cc4)CC3)CC2)cc1N1CCC(=O)NC1=O [Compound 54, N-(3-(6-(4-(((1s,4s)-4-((1-(3-(2,4-dioxotetrahydropyrimidin-1(2H)-yl)-4-methoxybenzoyl)piperidin-4-yl)oxy)cyclohexyl)oxy)phenyl)-7H-pyrrolo[2,3-d]pyrimidin-4-yl)-5-fluoro-2-methylphenyl)-2-fluoro-4-(2-hydroxypropan-2-yl)benzamide]		1.5	4.4			3.56	> 10000
COc1ccc(C(=O)N2CCC(O[C@H]3CC[C@@H](OCc4ccc(-c5cc6c(-c7cc(F)cc(NC(=O)c8ccc(C(C)(C)O)cc8F)c7C)ncnc6[nH]5)cc4)CC3)CC2)cc1N1CCC(=O)NC1=O [Compound 41, N-(3-(6-(4-((((1s,4s)-4-((1-(3-(2,4-dioxotetrahydropyrimidin-1(2H)-yl)-4-methoxybenzoyl)piperidin-4-yl)oxy)cyclohexyl)oxy)methyl)phenyl)-7H-pyrrolo[2,3-d]pyrimidin-4-yl)-5-fluoro-2-methylphenyl)-2-fluoro-4-(2-hydroxypropan-2-yl)benzamide]		12.4	4.4			17.5	> 10000
